{"source": "paper PMC6568278", "about": "(Chemical Science, 2019)", "type_in_all_cases": "cell-based", "key": {"NF-κB": {"test_system": "NF-κB", "details": "HEK-293/NF-κB-luc cells"}, "rat aortic VSMCs": {"test_system": "rat aortic VSMCs", "experiment": "PDGF-induced VSMC proliferation", "details": "PDGF-activated rat aortic VSMCs"}, "human umbilical vein ECs": {"test_system": "human umbilical vein ECs", "experiment": "Endothelial cell", "details": "30 μM"}}}
{"smiles": "COc1ccc(C[C@H]2CO[C@H](c3ccc(OC)c(OC)c3)[C@H]2COC(=O)C=C(C)C)cc1OC", "note": "[1b, ((2S,3R,4R)-4-(3,4-Dimethoxybenzyl)-2-(3,4-dimethoxyphenyl)tetrahydrofuran-3-yl)methyl 3-methylbut-2-enoate]", "values": [{"measurement": "NF-κB inhibition (in words)", "setting": "NF-κB", "value": "much more suppressive effect"}, {"measurement": "VSMC proliferation inhibition (in words)", "setting": "rat aortic VSMCs", "value": "remained unaffected"}]}
{"smiles": "C/C=C(/C)C(=O)OC[C@H]1[C@@H](Cc2ccc(C(F)(F)F)cc2)CO[C@@H]1c1ccc(F)cc1", "note": "[1j, (Z)-((2S,3R,4R)-2-(4-Fluorophenyl)-4-(4-(trifluoromethyl)benzyl)tetrahydrofuran-3-yl)methyl 2-methylbut-2-enoate]", "values": [{"measurement": "NF-κB inhibition (in words)", "setting": "NF-κB", "value": "no inhibition"}, {"measurement": "EC proliferation inhibition (in words)", "setting": "human umbilical vein ECs", "value": "no inhibition"}]}
{"smiles": "COc1ccc([C@H]2OC[C@H](Cc3ccc(C(C)(C)C)cc3)[C@@H]2CO)cc1OC", "note": "[7b, ((2S,3R,4R)-4-(4-(tert-Butyl)benzyl)-2-(3,4-dimethoxyphenyl)tetrahydrofuran-3-yl)methanol]", "values": [{"measurement": "NF-κB inhibition (in words)", "setting": "NF-κB", "value": "inactive"}, {"measurement": "VSMC proliferation inhibition (in words)", "setting": "rat aortic VSMCs", "value": "much more active"}]}
{"smiles": "COc1ccc(C[C@H]2CO[C@H](c3ccc(OC)c(OC)c3)[C@H]2COC(=O)CC(C)C)cc1OC", "note": "[1c]", "values": [{"measurement": "NF-κB inhibition (in words)", "setting": "NF-κB", "value": "similarly strong inhibition to 1b"}, {"measurement": "VSMC proliferation inhibition (in words)", "setting": "rat aortic VSMCs", "value": "no effect"}]}
